Results from patent US20250051409A1, “MODULATORS OF PHOSPHATIDYLSERlNE DECARBOXYLASE AND USE THEREOF” (THE NATIONAL INSTITUTE FOR BIOTECHNOLOGY IN THE NEGEV LTD., priority 2021, published 2025).
pKd: −log10 of the molar value. Square brackets hold non-standard residues; d marks the D form. Ends that are not written are not given here. Peptide text beside a SMILES is read from it. Dmt = Cc1cc(O)cc(C)c1C[C@H](N)C(=O)O; Orn = NCCC[C@H](N)C(=O)O

Tests used:
NF-κB = assay: IF staining of peptide-treated tumor sections, NF-κB; assay type: in vivo, nude mice; conditions: peptide-treated A549 tumors, immunofluorescence
Protocol: (§1) Sections of paraffin-embedded control and peptide treated tumors were IF stained using specific antibodies and subjected to quantification. Relative staining intensity for the nuclear proliferation marker, Ki-67 (and its (A), SMAC (B) and NF-kB (C). Results represent the means±SEM (n=3) ***P≤0.001. (G) Sections from the indicated tumors were stained with H & E, with some areas were magnified.
(§2) In order to reduce non-specific binding, sections were incubated in 10% normal goat serum for 2 h, then incubated with primary antibodies (Table 1) overnight at 4° C. […] Sections were washed with water, counterstained with hematoxylin, and mounted with Vectashield mounting medium (Vector Laboratories, Burlingame, CA).

SMAC = assay: IF staining of peptide-treated tumor sections, SMAC; assay type: in vivo, nude mice; conditions: peptide-treated A549 tumors
Protocol: as §1, §2

[1] = biological target: T1, phosphatidylserine decarboxylase (PSD) (Homo sapiens, UniProt Q9UG56); assay: MST binding of synthetic peptides to fluorescently-labelled purified PSD; conditions: PSD 0.25 μM, peptide 1-10 μM, 30 min at 37° C.
T1 construct: Purified recombinant protein (full length) of human phosphatidylserine decarboxylase (PSD); His tag (N); purchased Acris-OriGene; host or cells: E. coli
T1 sequence (Q9UG56 53-409): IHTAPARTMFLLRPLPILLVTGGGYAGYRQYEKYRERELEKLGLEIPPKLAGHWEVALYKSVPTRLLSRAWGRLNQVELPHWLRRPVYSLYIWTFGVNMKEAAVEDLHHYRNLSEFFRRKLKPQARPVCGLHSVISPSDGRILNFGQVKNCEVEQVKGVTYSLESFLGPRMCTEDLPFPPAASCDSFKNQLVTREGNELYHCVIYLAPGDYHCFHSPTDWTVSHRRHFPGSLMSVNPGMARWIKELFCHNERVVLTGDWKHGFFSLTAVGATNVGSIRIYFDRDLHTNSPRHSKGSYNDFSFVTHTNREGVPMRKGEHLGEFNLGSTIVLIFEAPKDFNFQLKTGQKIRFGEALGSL

[2] = biological target: T1, phosphatidylserine decarboxylase (PSD); assay: Peptide array blotted with PSD preincubated with peptide; assay type: binding; conditions: PSD 0.15 μM, peptide 20 μM
Protocol: (A) Schematic presentation of peptide array and detection of their interaction with SMAC. (B) Glass-bound peptide array consisting of overlapping peptides derived from […] SMAC-interacting proteins were incubated overnight with purified SMAC (0.3 μM) and then blotted with anti-SMAC antibodies (1:1000), followed by incubation with HRP-conjugated anti-mouse IgG and detection using a chemiluminescence kit. Dark spots represent binding of SMAC to peptides derived from SMAC-interacting proteins. (C) SMAC (0.3 μM) was incubated with purified PSD (0.4 μM) and blotted as in (B). The peptide spots where PSD prevented interaction with SMAC are circled. (D) Schematic presentation of peptide array and detection of their interaction with PSD. (E) Peptide array was blotted with purified PSD (0.15 μM) and then with anti-PSD antibodies as in (B). […]
Customized 768-peptide sequences derived from 11 SMAC-interacting proteins produced by INTAVIS Peptide Services (GmbH & Co. KG, Tubingen, Germany) were arrayed on a glass slide. […] Following extensive slide washing with Tris-buffered saline containing 0.05% Tween-20, SMAC or PSD binding was detected using anti-SMAC or anti-PSD antibodies and HRP-conjugated anti-rabbit or anti-mouse IgG as a secondary antibody. […]

A-549 cells = assay: Cell death on DSB-3 staining; assay type: cell-based, human; conditions: data not shown
Protocol: A549 and A549-SMAC-KO cells were seeded on sterile cover slips in 24-well cell culture plates (75,000 cells/well) and allowed to adhere for 24 h. MitoTracker® (250 nM in DMEM+10% FBS) was added, and plates were incubated in a CO2 incubator for 30 min at 37° C. Cells were washed with PBS and incubated with DSB3 (10 μM in reaction buffer; 40 mM NaCl, 1 mM KPO4, pH 7.4) in a C02 incubator for 2 h. Cells were washed with PBS, fixed with 4% PFA for 20 min at room temperature, washed with PBS, and stained with DAPI for 20 min at room temperature. Cover slips were washed with PBS and mounted with Vectashield, and imaging was done using confocal microscopy (Olympus 1X81).

[3] = tested on: A549 lung cancer tumor xenograft; assay: TUNEL staining of si-hSMAC-A treated tumors; assay type: in vivo, athymic nude mice; conditions: data not shown
Ki-67 = Ki-67 IHC in si-hSMAC-A treated tumors; assay type: in vivo, athymic nude mice
Protocol: (§3) Treatment was initiated when the average tumor volume in each group reached ˜50 mm^3. Results are presented as the mean tumor volume±SEM. […] Scale bars represent 50, 25 or 15 μm as indicated. […] Results are the means±SEM.
as §2

[4] = tested on: A549 lung cancer tumor xenograft; assay: A549 xenograft tumor growth under si-hSMAC-A; assay type: in vivo, athymic nude mice
Description: as §3
Male athymic nude mice (6-8 weeks old) were obtained from Envigo and were kept in Ben-Gurion University (Israel) animal facility in temperature-controlled rooms and provided with water and food pellets ad libitum. Lung cancer A549 (3×10^6) cells were implanted subcutaneously on the dorsal flanks. Tumor growth was recorded using digital calipers, and volumes were calculated using formula […] (L=length; W=width). Mice were divided randomly into three groups once the average tumor volume reached ˜80 mm^3, and were treated subcutaneously with si-NT (group 1) or si-hSMAC (group 2-350 nM group 3-700 nM final concentration) mixed with JetPEI reagent three times a week. Mice were sacrificed at the end of experiment, and the tumors were excised and processed for immunohistochemistry or frozen in liquid nitrogen for immunoblotting and RNA isolation. All procedures involving mice were approved by the Institutional Animal Care and Use Committee.

SMAC/Diablo = SMAC/Diablo level in si-hSMAC-A treated tumors (immunoblot, IHC); assay type: in vivo, athymic nude mice; conditions: relative to si-NT-TTs
Protocol: as §3, §2
Cells were harvested and washed twice with ice-cold PBS, and the pellets were lysed on ice for 30 min in a lysis buffer (50 mM Tris-HCl, pH 7.5, 150 mM NaCl, 1 mM EDTA, 1.5 mM MgCl2, 10% glycerol, 1% Triton X-100), freshly supplemented with a protease inhibitor cocktail (Calbiochem), incubated on ice for 20 min and centrifuged thereafter (10 min, 12000 g). The protein concentration of the supernatant was determined and […] were stored at −80° C. until used for gel electrophoresis and immunoblotting. Protein samples (10-20 μg) were subjected to SDS-PAGE and immunoblotting, using the selected primary antibodies, followed by incubation with HRP-conjugated secondary antibodies. HRP activity was determined using enhanced chemiluminescent substrate (Pierce Chemical, Rockford, IL). Band intensity was quantified using FUSION-FX (Vilber Lourmat, France).

[5] = tested on: total phospholipids (PLs), PC, and PE; assay: PL, PC and PE levels in si-hSMAC-A treated tumors; assay type: in vivo, athymic nude mice; conditions: relative to si-NT-TTs

Protocol for A549 cell xenografts: A549 cells were S.C. inoculated into female nude mice (7×10^6 cells/mouse). Tumors sizes were measured (using a digital caliper) and volumes were calculated. When tumors volumes reached 60-100 mm3 (day 12), the mice were divided into 2 groups and xenografts were untreated (●) or treated with HtrA2/Omi-derived D-amino acid peptide targeted to the mitochondria (D-HTRA2-M, o). The tumors were injected 3 times a week to a final concentration of 50 μM. […] Tumors of A549 cell xenografts were dissected, photographed (B) and weighted (C). […] Results represent the means±SEM (n=8), **P≤0.01, ***P≤0.001.
A549 cells were inoculated subcutaneously into female nude mice (7×10^6 cells/mouse). Tumors sizes were measured (using a digital caliper) and volumes were calculated. When tumors volumes reached 60-100 mm3 (day 12), the mice were divided into 2 groups (control and treatment) and in the treatment group xenografts were treated with HtrA2/Omi-derived D-amino acid peptide (SEQ ID NO:35) targeted to the mitochondria. The tumors were injected 3 times a week to a final concentration of 50 μM or the peptide was administered by intravenous injection 2 times a week to a final concentration of 20 mg/kg. Tumors of A549 cell xenografts were dissected, photographed and weighted.

Cc1cc(O)cc(C)c1C[C@H](NC(=O)[C@@H](CCCNC(=N)N)NC(=O)[C@@H](CC(C)C)NC(=O)[C@@H](CCCNC(=N)N)NC(=O)[C@@H](C)NC(=O)[C@@H](Cc1c[nH]c2ccccc12)NC(=O)[C@@H](CC(C)C)NC(=O)[C@@H](CO)NC(=O)[C@H]1CCCN1C(=O)[C@H](NC(=O)CNC(=O)[C@@H](Cc1ccc(O)cc1)NC(=O)[C@H](NC(=O)[C@H](NC(=O)[C@@H](CCCNC(=N)N)NC(=O)[C@@H](C)NC(=O)[C@@H](CCCNC(=N)N)NC(=O)[C@H]1CCCN1C(=O)[C@@H](CC(=O)O)NC(=O)[C@@H](CO)NC(=O)[C@H](NC(=O)CNC(=O)[C@@H](CO)NC(=O)[C@H](NC(=O)[C@@H](CC(C)C)NC(=O)[C@@H](CC(C)C)NC(=O)[C@@H](C)N)[C@H](C)O)[C@H](C)O)C(C)C)[C@H](C)O)[C@H](C)O)C(=O)N[C@@H](CCCN)C(=O)N[C@@H](Cc1ccccc1)C(N)=O [1C11-HTRA2-All-D-Mito] (H-[dA][dL][dL][dT][dS]G[dT][dS][dD][dP][dR][dA][dR][dV][dT][dY]G[dT][dP][dS][dL][dW][dA][dR][dL][dR][Dmt][Orn]F-NH2; N-terminus and C-terminus assumed)
tumor growth (A549 cell xenografts; intravenously, 20 mg/kg): inhibits tumor growth | decrease of tumor weight (A549 cell xenografts; intravenously, 20 mg/kg, 2 times a week): 50% | inhibition of tumor growth (A549 cell xenografts; mouse, in vivo, iv): 50% | decrease in NF-κB expression in tumors (NF-κB): ~90% | decrease in expression of SMAC in tumors (SMAC): 80%

ALLTSGTSDPRARVTYGTPSLWARL [1C11]
pKd [1]: 5.52 | PSD interaction with array peptides after pre-incubation of PSD with the peptide [2]: eliminate PSD interaction with most peptides

Distyrylbenzene-bis-aldehyde [DSB-3]
cell death (A-549 cells): induces no cell death

si-hSMAC-A: Human SMAC/Diablo-specific siRNA, sense SEQ ID NO:33 and anti-sense SEQ ID NO:34 (sense AAGCGGUGUUUCUCAGAATTGTT; antisense AACAAUUCUGAGAAACCCGCTT; chemistry not given here)
cell death in treated tumors [3]: No cell death was detected | expression of Ki-67 in treated tumors (Ki-67): highly reduced | tumor volume reduction relative to si-NT-treated tumors ([4]; si-hSMAC-A at 350 nM): 50% | tumor volume reduction relative to si-NT-treated tumors ([4]; si-hSMAC-A at 700 nM): 85% | decrease of SMAC/Diablo level in treated tumors (SMAC/Diablo): 75% | decrease of PC in treated tumors [5]: 65% | decrease of PLs in treated tumors [5]: 50% | increase of PE in treated tumors [5]: 200%
